Laboratory results as given in US20250177383A1, “DI-CYCLOPROPYL BASED IL-17A MODULATORS AND USES THEREOF” (DICE ALPHA, INC., priority 2022, published 2025).

Columns and labels:
[1] = molecular target: T1, IL-17A/A (Homo sapiens, UniProt Q16552); assay: IL-17A/A HEK-Blue Cell Assay; assay type: cell-based; conditions: HEK-Blue IL-17 reporter cells, IL-17A/A stimulation, 20 hours, SEAP readout; read-out: IL17 AA HEK-5 pIC50 (converted)
T1 sequence (Q16552 24-155): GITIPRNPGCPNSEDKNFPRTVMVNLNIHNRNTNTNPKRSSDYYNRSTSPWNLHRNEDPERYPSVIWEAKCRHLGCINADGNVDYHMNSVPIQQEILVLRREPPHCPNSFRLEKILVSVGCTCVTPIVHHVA
How it was run: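 Cells co-expressing IL-17RA, IL-17RC and Act1 received titrated compound, top final 10 uM in 0.1% DMSO, immediately before IL-17A/A stimulation.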

[2] = molecular target: T2, IL-17A/F (Homo sapiens, UniProt Q16552+Q96PD4); assay: IL-17A/F HEK-Blue Cell Assay; assay type: cell-based; conditions: HEK-Blue IL-17 reporter cells, IL-17A/F stimulation, 20 hours, SEAP readout; read-out: IL17AF HEK Blue pIC50 (converted)
T2 sequence (Q16552 24-155): T1 sequence (Q16552 24-155)
T2 sequence (Q96PD4 31-163): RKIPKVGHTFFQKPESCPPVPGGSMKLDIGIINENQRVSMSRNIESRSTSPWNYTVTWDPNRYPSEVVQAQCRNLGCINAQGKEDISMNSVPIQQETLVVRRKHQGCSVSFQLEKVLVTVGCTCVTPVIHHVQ

[3] = Microsomal stability, rat liver microsomes; assay type: in vitro ADME; conditions: SD rat liver microsomes 0.5 mg protein/mL, 1 μM test compound, NADPH, 37° C., 60 min; read-out: RLM Clint
Method: (§1) Test compound and control working solution preparation. 5 μL of a compound and control stock solution (10 mM in dimethyl sulfoxide (DMSO)) were diluted with 495 μL of acetonitrile (ACN).
(§2) NADPH cofactor preparation. The appropriate amount of NADPH powder was weighed and diluted into a 10 mM MgCl2 solution (working solution concentration: 10 mM; final concentration in reaction system: 1 mM). Materials: NADPH powder: β-Nicotinamide adenine dinucleotide phosphate reduced form, tetrasodium salt; NADPHA4Na (Vendor: Chem-Impex International, Cat. No. 00616).
(§3) Liver Microsome Preparation. The appropriate concentrations of microsome working solutions were prepared in 100 mM potassium phosphate buffer. Materials: Human Liver Microsomes (HLM) Cat No. 452117 and Lot No. 38295 (Corning); SD Rat Liver Microsomes (RLM) Cat No. R1000 and Lot No. 1910100 (Xenotech).
(§4) Stop solution preparation. Cold (4° C.) acetonitrile (ACN) containing 200 ng/mL tolbutamide and 200 ng/mL labetalol as internal standards (IS) were used as the stop solution.
(§5) Assay Procedure. Empty incubation plates (T60 and NCF60) were warmed for 10 mins prior to use. Liver microsomes were diluted to 0.56 mg/mL in 100 mM phosphate buffer. 445 uL microsome working solutions (0.56 mg/mL) were transferred into pre-warmed ‘Incubation’ plates T60 and NCF60, Then ‘Incubation’ plates T60 and NCF60 were pre-incubated for 10 min at 37° C. with constant shaking. 54 μL liver microsomes were transferred to the blank plate, then 6 μL NAPDH cofactor were added to the blank plate, followed by the addition 180 μL quenching solution to the blank plate. 5 μL compound working solution (100 μM) were added into ‘incubation’ plates (T60 and NCF60) containing microsomes and mixed thoroughly 3 times. To the NCF60 plate 50 μL of buffer were added and mixed 3 times thoroughly. Start timing; plate was incubated at 37° C. for 60 min while shaking. In ‘Quenching’ plate TO, were added 180 μL quenching solution and 6 μL NAPDH cofactor. Plate is chilled to prevent evaporation. The T60 plate, was mixed 3 times thoroughly, and immediately 54 μL of the mixture was removed for the 0-min time point to ‘Quenching’ plate. Then 44 μL NAPDH cofactor was added to the incubation plate (T60). Start timing; plate was incubated at 37° C. for 60 min while shaking. Final concentrations of each component in the incubation media: Microsome (0.5 mg protein/mL); Test compound (1 μM); control compound ([…]); ACN (0.99%); and DMSO (0.01%). At 5, 15, 30, 45, and 60 min, 180 μL quenching solution was added to ‘Quenching’ plates, mixed once, and serially transferred 60 μL of sample from T60 plate per time point to ‘Quenching’ plates. For the NCF60 plate, mix once and 60 μL of sample was transferred from the NCF60 incubation to ‘Quenching’ plate containing quenching solution at the 60-min time point (Start time 1:00:00 and End Time 0:00:00).
(§6) All sampling plates were shaken for 10 min, then centrifuged at 4000 rpm for 20 minutes at 4° C. 80 μL of supernatant were transferred into 240 μL HPLC water, and mixed by plate shaker for 10 min. Each bioanalysis plate was sealed and shaken for 10 minutes prior to LC-MS/MS analysis.

[4] = Rat pharmacokinetics, PO; assay type: in vivo; conditions: male rat, PO 5 mg/kg oral gavage, plasma, Linear/log trapezoidal; read-out: Rat PO AUC0-t
Method: Formulations for PO. An appropriate amount of the test article is weighed and mixed with the appropriate volume of vehicle to get a clear solution or a uniform suspension, vortexing or sonication in water bath may used. Animals are dosed within four hours after the formulation is prepared.
Formulation samples are removed from each of the formulation solutions or suspensions, transferred into 1.5 mL of polypropylene microcentrifuge tubes and run dose validated by LC/UV or LC-MS/MS.
Dose administration. For PO dosing, the dose formulation is administered via oral gavage.
Blood Collection. Each blood collection (about 0.2 mL per time point) is performed from carotid artery cannula (CAC) of each animal into a pre-chilled commercial EDTA-K2 tubes as anti-coagulant, then placed on wet ice until centrifugation. Blood samples are processed for plasma by centrifugation at approximately 4° C., 3,200 g for 10 min. Plasma is collected respectively and a certain amount of plasma from rat is transferred into pre-labeled 96 well plate or polypropylene tubes, quick frozen over dry ice and kept at −60° C. or lower until LC-MS/MS analysis. After terminal collection, all plasmas are stored at approximately −80° C. freezer until final analysis.
Plasma concentration versus time data are plotted in graph and analyzed by non-compartmental approaches using the Phoenix WinNonlin 6.3 software program. Trapezoids: Before TMax (Linear); After Tmax (Log). Partial Area Interpolations: Before TMax (Linear); After Tmax (Log).

[5] = Microsomal stability, human liver microsomes; assay type: in vitro ADME; conditions: human liver microsomes 0.5 mg protein/mL, 1 μM test compound, NADPH, 37° C., 60 min; read-out: HLM Clint
Method: as §1, §2, §3, §4, §5, §6

SMILES | IC50 [1] [nM] | IC50 [2] [nM] | microsomal CLint at 1 μM [3] [µL/min/mg] | AUC(0-t) [4] [ng·h/mL] | microsomal CLint at 1 μM [5] [µL/min/mg]
CCn1nccc1C(=O)N[C@H](C(=O)Nc1ccc([C@H](C)[C@@H](NC(=O)COC)C(=O)N2CCN(C)C(CF)C2)cc1F)C(C1CC1)C1CC1 (single isomer, unassigned) [Compound 298] | < 10 | 10 to 100 | < 9.6 | > 1000 | < 50
CCn1nccc1C(=O)N[C@H](C(=O)Nc1ccc([C@H](C)[C@@H](NC(=O)COC)C(=O)N2CCN(C)[C@H](C)C2)cc1F)C(C1CC1)C1CC1 [Compound 207] | < 10 | 10 to 100 | < 9.6 | > 1000 | 50 to 150
CCn1nccc1C(=O)N[C@H](C(=O)Nc1ccc([C@H](C)[C@@H](NC(=O)COC)C(=O)N2CCN(C)CC2)cc1F)C(C1CC1)C1CC1 [Compound 215] | 10 to 100 | 10 to 100 | < 9.6 | > 1000 | 50 to 150
CCC(=O)N[C@@H](C(=O)N1CCN(C)[C@H](C)C1)[C@@H](C)c1ccc(NC(=O)[C@@H](NC(=O)c2ccnn2CC(F)F)C(C2CC2)C2CC2)c(F)c1 [Compound 232] | < 10 | – | < 9.6 | < 500 | < 50
CCC(=O)N[C@@H](C(=O)N1CCN(C)[C@H](C)C1)[C@@H](C)c1ccc(NC(=O)[C@@H](NC(=O)C2(F)CC2)C(C2CC2)C2CC2)c(F)c1 [Compound 245] | 10 to 100 | 100 to 10000 | < 9.6 | > 1000 | < 50
CCC(=O)N[C@@H](C(=O)N1CCN(C)CC1)[C@@H](C)c1ccc(NC(=O)[C@@H](NC(=O)c2ccnn2C(C)C)C(C2CC2)C2CC2)c(F)c1 [Compound 257] | < 10 | – | < 9.6 | 500 to 1000 | 50 to 150

Next, values leading:

IC50 [1] [nM] | IC50 [2] [nM] | microsomal CLint at 1 μM [3] [µL/min/mg] | AUC(0-t) [4] [ng·h/mL] | microsomal CLint at 1 μM [5] [µL/min/mg] | SMILES
< 10 | 10 to 100 | < 9.6 | 500 to 1000 | 50 to 150 | CCC(=O)N[C@@H](C(=O)N1CCN(C)[C@H](C)C1)[C@@H](C)c1ccc(NC(=O)[C@@H](NC(=O)c2ccnn2CC)C(C2CC2)C2CC2)c(F)c1 [Compound 209]
< 10 | 10 to 100 | 9.6 to 20 | 500 to 1000 | < 50 | CCC(=O)N[C@@H](C(=O)N1C[C@@H](C)N(C)C[C@H]1C)[C@@H](C)c1ccc(NC(=O)[C@@H](NC(=O)c2ccnn2CC)C(C2CC2)C2CC2)c(F)c1 [Compound 212]
< 10 | 10 to 100 | < 9.6 | 500 to 1000 | 50 to 150 | CCC(=O)N[C@@H](C(=O)N1CCN(C)[C@@H](C)C1)[C@@H](C)c1ccc(NC(=O)[C@@H](NC(=O)c2ccnn2CC)C(C2CC2)C2CC2)c(F)c1 [Compound 213]
